IC50 data for 33 compounds are collected here from patent US20120115869A1, “TETRAZOLE DERIVATIVES” (MERCK SERONO S.A., priority 2009, published 2012).

Molecules are shown by their SMILES.

A word on the IC50: it is the midpoint of a concentration-inhibition curve. The low end stands for higher potency, the high end for lower potency.

The experiment deals with T1, CRTH2 (DP2) (Homo sapiens, UniProt Q9Y5Y4).
T1 construct: host or cells: CHO cells
T1 sequence (Q9Y5Y4 1-395): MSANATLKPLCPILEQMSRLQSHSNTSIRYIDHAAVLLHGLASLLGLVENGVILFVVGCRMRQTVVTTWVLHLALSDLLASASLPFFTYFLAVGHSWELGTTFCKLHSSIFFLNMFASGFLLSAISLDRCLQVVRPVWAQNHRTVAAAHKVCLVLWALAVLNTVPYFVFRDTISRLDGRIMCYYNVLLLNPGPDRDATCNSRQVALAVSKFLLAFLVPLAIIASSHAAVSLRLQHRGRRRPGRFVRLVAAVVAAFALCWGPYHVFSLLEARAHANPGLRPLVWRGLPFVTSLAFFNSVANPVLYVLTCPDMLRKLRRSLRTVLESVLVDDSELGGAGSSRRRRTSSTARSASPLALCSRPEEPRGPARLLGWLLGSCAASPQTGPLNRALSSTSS
Briefly: Radioligand binding Scintillation Proximity Assay ([3H]PGD2, hCRTH2-CHO cell membranes). The conditions noted are these: 1.5 nM [3H]PGD2, hCRTH2-CHO cell membranes, SPA. As for the experimental part:
Adherent CHO cells expressing hCRTH2 (Euroscreen, Belgium) were cultured in 225 cm^2 cell culture flasks (Corning, USA) in 30 ml of medium. After two rinses of phosphate buffered saline (PBS), cells were harvested in 10 ml of PBS containing 1 mM EDTA, centrifuged at 500×g for 5 min at 4° C. and frozen at −80° C. The pellet was re-suspended in 50 mM Tris-HCl, pH 7.4, 2 mM EDTA, 250 mM Sucrose, containing protease inhibitor cocktail tablets, (Complete EDTA-free, Roche, Germany) and incubated 30 min at 4° C. Cells were disrupted by nitrogen cavitation (Parr Instruments, USA) at 4° C. (800 p.s.i. for 30 min), and centrifuged at 500×g for 10 min at 4° C. Pellet containing nuclei and cellular debris was discarded and supernatant was centrifuged 60 min at 4° C. at 45000×g. Membrane pellet was re-suspended in storage buffer (10 mM HEPES/KOH pH 7.4, 1 mM EDTA, 250 mM sucrose, protease inhibitor cocktail tablets) using Dounce homogenization and frozen in liquid nitrogen, and stored at 80° C.
Non-specific binding was determined in the presence of 10 μM PGD2 (Cayman, USA). Competing Compounds of Formula (I) were diluted in dimethylsulphoxide so that the total volume of dimethylsulfoxide was kept constant at 1% dimethylsulphoxide (Me2SO). Serial dilutions of […] were prepared and 10 μl each of the compounds of Formula (I) stock solutions were added to the binding assay reagents and incubated for 90 min with agitation at room temperature.
A general note: SPA uses beads or plates that emit light when radiolabelled molecules are held near them.
In turn, `CCC(=O)N(Cc1cccc(-c2cccnc2)c1)c1cccc(-c2nnn[nH]2)c1` [Example 64, N-(3-pyridin-3-ylbenzyl)-N-[3-(1H-tetrazol-5-yl)phenyl]propanamide] had an IC50 of 403 nM. As for `CCC(=O)N(Cc1ccc(-c2cn[nH]c2)cc1)c1cccc(-c2nnn[nH]2)c1` [Example 70, N-[4-(1H-pyrazol-4-yl)benzyl]-N-[3-(1H-tetrazol-5-yl)phenyl]propanamide], the IC50 turned out to be 455 nM. Turning to `CCCCC(=O)N(Cc1ccsc1)c1cccc(-c2nnn[nH]2)c1` [Example 21, N-[3-(1H-tetrazol-5-yl)phenyl]-N-(3-thienylmethyl)pentanamide], the IC50 was 759 nM. The same measure for `CCC(=O)N(Cc1c(C)noc1-c1ccccc1)c1cccc(-c2nnn[nH]2)c1` [Example 24, N-[(3-methyl-5-phenylisoxazol-4-yl)methyl]-N-[3-(1H-tetrazol-5-yl)phenyl]propanamide]: 2180 nM. Compound `CCC(=O)N(Cc1cccc(-c2cn[nH]c2)c1)c1cc(F)cc(-c2nnn[nH]2)c1` [Example 101, N-[3-fluoro-5-(1H-tetrazol-5-yl)phenyl]-N-[3-(1H-pyrazol-4-yl)benzyl]propanamide] came in with an IC50 of 19 nM. Turning to `CS(=O)(=O)c1ccc(CN(C(=O)c2ccncc2)c2cc(F)cc(-c3nnn[nH]3)c2)cc1` [Example 106, N-[3-fluoro-5-(1H-tetrazol-5-yl)phenyl]-N-[4-(methylsulfonyl)benzyl]isonicotinamide], the IC50 was 20 nM. The IC50 values of the last two compounds are within 1.5-fold of each other. Regarding `CCC(=O)N(Cc1cccc(-c2c(C)noc2C)c1)c1cccc(-c2nnn[nH]2)c1` [Example 61, N-[3-(3,5-dimethylisoxazol-4-yl)benzyl]-N-[3-(1H-tetrazol-5-yl)phenyl]propanamide], the IC50 was 305 nM. Against the preceding compound, the IC50 is about 15-fold higher. For `CCC(=O)N(Cc1cccc(-c2sc(C)nc2C)c1)c1cccc(-c2nnn[nH]2)c1` [Example 63, N-[3-(2,4-dimethyl-1,3-thiazol-5-yl)benzyl]-N-[3-(1H-tetrazol-5-yl)phenyl]propanamide], the IC50 was determined as 235 nM. For the compound `CCC(=O)N(Cc1ccsc1)c1cccc(-c2nnn[nH]2)c1` [Example 18, N-[3-(1H-tetrazol-5-yl)phenyl]-N-(3-thienylmethyl)propanamide], the IC50 is 2100 nM.

Compound `CCC(=O)N(Cc1ccc(-c2cnoc2)cc1)c1cc(F)cc(-c2nnn[nH]2)c1` [Example 111, N-[3-fluoro-5-(1H-tetrazol-5-yl)phenyl]-N-(4-isoxazol-4-ylbenzyl)propanamide] had an IC50 of 113 nM. In the case of `CCC(=O)N(Cc1cccc(C#CCO)c1)c1cccc(-c2nnn[nH]2)c1` [Example 48, N-[3-(3-hydroxyprop-1-yn-1-yl)benzyl]-N-[3-(1H-tetrazol-5-yl)phenyl]propanamide], the IC50 is 1270 nM.

Compound `CCCCC(=O)N(Cc1ccc2c(c1)OCCO2)c1cc(-c2nnn[nH]2)ccc1F` [Example 15, N-(2,3-dihydro-1,4-benzodioxin-6-ylmethyl)-N-[2-fluoro-5-(1H-tetrazol-5-yl)phenyl]pentanamide] had an IC50 of 4.2 nM. `CCCCC(=O)N(Cc1ccc(O)cc1)c1cccc(-c2nnn[nH]2)c1` [Example 74, N-(4-hydroxybenzyl)-N-[3-(1H-tetrazol-5-yl)phenyl]pentanamide] returned an IC50 of 169 nM. `CCOCC(=O)N(Cc1ccc(OC(F)(F)F)cc1)c1cc(Cl)cc(-c2nnn[nH]2)c1` [Example 67, N-[3-chloro-5-(1H-tetrazol-5-yl)phenyl]-2-ethoxy-N-[4-(trifluoromethoxy)benzyl]acetamide] showed an IC50 of 16 nM. As for `CCC(=O)N(Cc1cccc(C(F)(F)F)c1)c1cccc(-c2nnn[nH]2)c1` [Example 28, N-[3-(1H-tetrazol-5-yl)phenyl]-N-[3-(trifluoromethyl)benzyl]propanamide], the IC50 amounted to 268 nM.

Turning to `CCC(=O)N(Cc1ccc(C(F)(F)F)cc1)c1cccc(-c2nnn[nH]2)c1` [Example 27, N-[3-(1H-tetrazol-5-yl)phenyl]-N-[4-(trifluoromethyl)benzyl]propanamide], the 50% inhibitory concentration (IC50) is 129 nM.

For `CCC(=O)N(Cc1cccc(-c2ccncc2)c1)c1cccc(-c2nnn[nH]2)c1` [Example 96, N-(3-pyridin-4-ylbenzyl)-N-[3-(1H-tetrazol-5-yl)phenyl]propanamide], the IC50 was 330 nM. As for `CCC(=O)N(Cc1ccc(S(=O)(=O)C(F)(F)F)cc1)c1cc(F)cc(-c2nnn[nH]2)c1` [Example 95, N-[3-fluoro-5-(1H-tetrazol-5-yl)phenyl]-N-{4-[(trifluoromethyl)sulfonyl]benzyl}propanamide], the IC50 amounted to 5.6 nM. For the compound `CC(C)CC(=O)N(Cc1ccc2c(c1)OCCO2)c1cc(-c2nnn[nH]2)ccc1F` [Example 7, N-(2,3-dihydro-1,4-benzodioxin-6-ylmethyl)-N-[2-fluoro-5-(1H-tetrazol-5-yl)phenyl]-3-methylbutanamide], the IC50 was found to be 7.1 nM. The compound `CCC(=O)N(Cc1cccc(C)c1)c1cccc(-c2nnn[nH]2)c1` [Example 73, N-(3-methylbenzyl)-N-[3-(1H-tetrazol-5-yl)phenyl]propanamide] yielded an IC50 of 662 nM.

For `Cc1ccc(CCC(=O)N(Cc2ccc(S(C)(=O)=O)cc2)c2cc(F)cc(-c3nnn[nH]3)c2)cc1` [Example 107, N-[3-fluoro-5-(1H-tetrazol-5-yl)phenyl]-3-(4-methylphenyl)-N-[4-(methylsulfonyl)benzyl]propanamide], the IC50 was 2.9 nM. For `CCC(=O)N(Cc1ccc(-c2cccnc2)cc1)c1cc(F)cc(-c2nnn[nH]2)c1` [Example 90, N-[3-fluoro-5-(1H-tetrazol-5-yl)phenyl]-N-(4-pyridin-3-ylbenzyl)propanamide], the IC50 is 140 nM. The same measure for `CCC(=O)N(Cc1cccc(OC(F)(F)F)c1)c1cccc(-c2nnn[nH]2)c1` [Example 42, N-[3-(1H-tetrazol-5-yl)phenyl]-N-[3-(trifluoromethoxy)benzyl]propanamide]: 245 nM. In the case of `CCC(=O)N(Cc1ccc(-c2sc(C)nc2C)cc1)c1cc(F)cc(-c2nnn[nH]2)c1` [Example 119, N-[4-(2,4-dimethyl-1,3-thiazol-5-yl)benzyl]-N-[3-fluoro-5-(1H-tetrazol-5-yl)phenyl]propanamide], the IC50 came to 5.2 nM. `CCC(=O)N(Cc1ccc2c(c1)OCCO2)c1cccc(-c2nnn[nH]2)c1` [Example 20, N-(2,3-dihydro-1,4-benzodioxin-6-ylmethyl)-N-[3-(1H-tetrazol-5-yl)phenyl]propanamide]: the IC50 is 51 nM. The same measure for `CCC(=O)N(Cc1ccc(-c2cc[nH]n2)cc1)c1cccc(-c2nnn[nH]2)c1` [Example 66, N-[4-(1H-pyrazol-3-yl)benzyl]-N-[3-(1H-tetrazol-5-yl)phenyl]propanamide]: 973 nM; for `CCC(=O)N(Cc1ccc2ncccc2c1)c1cccc(-c2nnn[nH]2)c1` [Example 72, N-(quinolin-6-ylmethyl)-N-[3-(1H-tetrazol-5-yl)phenyl]propanamide]: 1110 nM. Take `CCC(=O)N(Cc1cccc(-c2ccncc2)c1)c1cc(F)cc(-c2nnn[nH]2)c1` [Example 83, N-[3-fluoro-5-(1H-tetrazol-5-yl)phenyl]-N-(3-pyridin-4-ylbenzyl)propanamide]: the IC50 stood at 25 nM. Compound `CCC(=O)N(Cc1ccc(-c2ccccc2)cc1)c1cc(F)cc(-c2nnn[nH]2)c1` [Example 97, N-(biphenyl-4-ylmethyl)-N-[3-fluoro-5-(1H-tetrazol-5-yl)phenyl]propanamide] yielded an IC50 of 70 nM. In turn, `CCC(=O)N(Cc1ccc(-c2cccc(S(=O)(=O)N3CCOCC3)c2)cc1)c1cc(F)cc(-c2nnn[nH]2)c1` [Example 91, N-[3-fluoro-5-(1H-tetrazol-5-yl)phenyl]-N-{[3′-(morpholin-4-ylsulfonyl)biphenyl-4-yl]methyl}propanamide] registered an IC50 of 145 nM. As to `CCC(=O)N(Cc1ccc(-c2c(C)noc2C)cc1)c1cccc(-c2nnn[nH]2)c1` [Example 71, N-[4-(3,5-dimethylisoxazol-4-yl)benzyl]-N-[3-(1H-tetrazol-5-yl)phenyl]propanamide], the IC50 came out at 182 nM. Turning to `CCCCC(=O)N(Cc1ccc(C(F)(F)F)cc1)c1cc(F)cc(-c2nnn[nH]2)c1` [Example 60, N-[3-fluoro-5-(1H-tetrazol-5-yl)phenyl]-N-[4-(trifluoromethyl)benzyl]pentanamide], the IC50 was determined as 2.6 nM. The compound `CCC(=O)N(Cc1cccc(C#CC(C)(C)C)c1)c1cccc(-c2nnn[nH]2)c1` [Example 50, N-[3-(3,3-dimethylbut-1-yn-1-yl)benzyl]-N-[3-(1H-tetrazol-5-yl)phenyl]propanamide] displayed an IC50 of 1300 nM.
